According to article PMC6886798, “Expression of myeloid Src-family kinases is associated with poor prognosis in AML and influences Flt3-ITD kinase inhibitor acquired resistance” (PLoS ONE, 2019):

Key:
[1] = tested on: chemotherapy-resistant AML patient xenografts; set-up: method as in PMID 23596204; conditions: mice; cited from earlier work
RIOK2 = target: T1, RIOK2 (Homo sapiens, UniProt Q9BVS4); experiment: KINOMEscan; type: binding; conditions: 1.0 µM
T1 construct: purchased Eurofins/DiscoverX KINOMEscan scanMAX
Procedure: (§1) Kinase retention to the immobilized ligand is then measured using quantitative real-time PCR for each kinase-specific DNA barcode.

GSK3A = target: T2, GSK3A (Homo sapiens, UniProt P49840); experiment: KINOMEscan; type: binding; conditions: 1.0 µM
T2 construct: purchased Eurofins/DiscoverX KINOMEscan scanMAX
Procedure: as §1

CIT = target: T3, CIT (Homo sapiens, UniProt O14578); experiment: KINOMEscan; type: binding; conditions: 1.0 µM
T3 construct: purchased Eurofins/DiscoverX KINOMEscan scanMAX
Procedure: as §1

NEK3 = target: T4, NEK3 (Homo sapiens, UniProt P51956); experiment: KINOMEscan; type: binding; conditions: 1.0 µM
T4 construct: purchased Eurofins/DiscoverX KINOMEscan scanMAX
Procedure: as §1

MKK7 = target: T5, MKK7 (Homo sapiens, UniProt O14733); experiment: KINOMEscan; type: binding; conditions: 1.0 µM
T5 construct: purchased Eurofins/DiscoverX KINOMEscan scanMAX
Procedure: as §1

BMPR1A = target: T6, BMPR1A (Homo sapiens, UniProt P36894); experiment: KINOMEscan; type: binding; conditions: 1.0 µM
T6 construct: purchased Eurofins/DiscoverX KINOMEscan scanMAX
Procedure: as §1

BMX = target: T7, BMX (Homo sapiens, UniProt P51813); experiment: KINOMEscan; type: binding; conditions: 1.0 µM
T7 construct: purchased Eurofins/DiscoverX KINOMEscan scanMAX
Procedure: as §1

MEK2 = target: T8, MEK2 (Homo sapiens, UniProt P36507); experiment: KINOMEscan; type: binding; conditions: 1.0 µM
T8 construct: purchased Eurofins/DiscoverX KINOMEscan scanMAX
Procedure: as §1

BIKE = target: T9, BIKE (Homo sapiens, UniProt Q9NSY1); experiment: KINOMEscan; type: binding; conditions: 1.0 µM
T9 construct: purchased Eurofins/DiscoverX KINOMEscan scanMAX
Procedure: as §1

[2] = target: T10, RPS6KA4(Kin.Dom.2-C-terminal) (Homo sapiens, UniProt O75676); experiment: KINOMEscan; type: binding; conditions: 1.0 µM
T10 construct: RPS6KA4(Kin.Dom.2-C-terminal); purchased Eurofins/DiscoverX KINOMEscan scanMAX
Procedure: as §1

TAK1 = target: T11, TAK1 (Homo sapiens, UniProt O43318); experiment: KINOMEscan; type: binding; conditions: 1.0 µM
T11 construct: purchased Eurofins/DiscoverX KINOMEscan scanMAX
Procedure: as §1

CHEK2 = target: T12, CHEK2 (Homo sapiens, UniProt O96017); experiment: KINOMEscan; type: binding; conditions: 1.0 µM
T12 construct: purchased Eurofins/DiscoverX KINOMEscan scanMAX
Procedure: as §1

NIM1 = target: T13, NIM1 (Homo sapiens, UniProt Q8IY84); experiment: KINOMEscan; type: binding; conditions: 1.0 µM
T13 construct: purchased Eurofins/DiscoverX KINOMEscan scanMAX
Procedure: as §1

HUNK = target: T14, HUNK (Homo sapiens, UniProt P57058); experiment: KINOMEscan; type: binding; conditions: 1.0 µM
T14 construct: purchased Eurofins/DiscoverX KINOMEscan scanMAX
Procedure: as §1

PRKD2 = target: T15, PRKD2 (Homo sapiens, UniProt Q9BZL6); experiment: KINOMEscan; type: binding; conditions: 1.0 µM
T15 construct: purchased Eurofins/DiscoverX KINOMEscan scanMAX
Procedure: as §1

[3] = target: T16, ABL1(F317I)-phosphorylated (Homo sapiens, UniProt P00519, F317I); experiment: KINOMEscan; type: binding; conditions: 1.0 µM
T16 construct: purchased Eurofins/DiscoverX KINOMEscan scanMAX
Procedure: as §1

FLT3(K663Q) = target: T17, FLT3(K663Q) (Homo sapiens, UniProt P36888, K663Q); experiment: KINOMEscan; type: binding; conditions: 1.0 µM
T17 construct: purchased Eurofins/DiscoverX KINOMEscan scanMAX
Procedure: as §1

PIP5K2C = target: T18, PIP5K2C (Homo sapiens, UniProt Q8TBX8); experiment: KINOMEscan; type: binding; conditions: 1.0 µM
T18 construct: purchased Eurofins/DiscoverX KINOMEscan scanMAX
Procedure: as §1

S6K1 = target: T19, S6K1 (Homo sapiens, UniProt P23443); experiment: KINOMEscan; type: binding; conditions: 1.0 µM
T19 construct: purchased Eurofins/DiscoverX KINOMEscan scanMAX
Procedure: as §1

PIM1 = target: T20, PIM1 (Homo sapiens, UniProt P11309); experiment: KINOMEscan; type: binding; conditions: 1.0 µM
T20 construct: purchased Eurofins/DiscoverX KINOMEscan scanMAX
Procedure: as §1

PKAC-alpha = target: T21, PKAC-alpha (Homo sapiens, UniProt P17612); experiment: KINOMEscan; type: binding; conditions: 1.0 µM
T21 construct: purchased Eurofins/DiscoverX KINOMEscan scanMAX
Procedure: as §1

FGFR3 = target: T22, FGFR3 (Homo sapiens, UniProt P22607); experiment: KINOMEscan; type: binding; conditions: 1.0 µM
T22 construct: purchased Eurofins/DiscoverX KINOMEscan scanMAX
Procedure: as §1

MARK4 = target: T23, MARK4 (Homo sapiens, UniProt Q96L34); experiment: KINOMEscan; type: binding; conditions: 1.0 µM
T23 construct: purchased Eurofins/DiscoverX KINOMEscan scanMAX
Procedure: as §1

PFTK1 = target: T24, PFTK1 (Homo sapiens, UniProt O94921); experiment: KINOMEscan; type: binding; conditions: 1.0 µM
T24 construct: purchased Eurofins/DiscoverX KINOMEscan scanMAX
Procedure: as §1

CSNK1E = target: T25, CSNK1E (Homo sapiens, UniProt P49674); experiment: KINOMEscan; type: binding; conditions: 1.0 µM
T25 construct: purchased Eurofins/DiscoverX KINOMEscan scanMAX
Procedure: as §1

YANK3 = target: T26, YANK3 (Homo sapiens, UniProt Q86UX6); experiment: KINOMEscan; type: binding; conditions: 1.0 µM
T26 construct: purchased Eurofins/DiscoverX (KINOMEscan scanMAX service)
Procedure: as §1

p38-delta = target: T27, p38-delta (Homo sapiens, UniProt O15264); experiment: KINOMEscan; type: binding; conditions: 1.0 µM
T27 construct: purchased Eurofins/DiscoverX KINOMEscan scanMAX
Procedure: as §1

ERK5 = target: T28, ERK5 (Homo sapiens, UniProt Q13164); experiment: KINOMEscan; type: binding; conditions: 1.0 µM
T28 construct: purchased Eurofins/DiscoverX KINOMEscan scanMAX
Procedure: as §1

ERN1 = target: T29, ERN1 (Homo sapiens, UniProt O75460); experiment: KINOMEscan; type: binding; conditions: 1.0 µM
T29 construct: purchased Eurofins/DiscoverX KINOMEscan scanMAX
Procedure: as §1

KIT(V559D) = target: T30, KIT(V559D) (Homo sapiens, UniProt P10721, V559D); experiment: KINOMEscan; type: binding; conditions: 1.0 µM
T30 construct: purchased Eurofins/DiscoverX KINOMEscan scanMAX
Procedure: as §1

EPHB6 = target: T31, EPHB6 (Homo sapiens, UniProt O15197); experiment: KINOMEscan; type: binding; conditions: 1.0 µM
T31 construct: purchased Eurofins/DiscoverX KINOMEscan scanMAX
Procedure: as §1

TIE1 = target: T32, TIE1 (Homo sapiens, UniProt P35590); experiment: KINOMEscan; type: binding; conditions: 1.0 µM
T32 construct: purchased Eurofins/DiscoverX KINOMEscan scanMAX
Procedure: as §1

ACVR1 = target: T33, ACVR1 (Homo sapiens, UniProt Q04771); experiment: KINOMEscan; type: binding; conditions: 1.0 µM
T33 construct: purchased Eurofins/DiscoverX KINOMEscan scanMAX
Procedure: as §1

MELK = target: T34, MELK (Homo sapiens, UniProt Q14680); experiment: KINOMEscan; type: binding; conditions: 1.0 µM
T34 construct: purchased Eurofins/DiscoverX KINOMEscan scanMAX
Procedure: as §1

RET = target: T35, RET (Homo sapiens, UniProt P07949); experiment: KINOMEscan; type: binding; conditions: 1.0 µM
T35 construct: purchased Eurofins/DiscoverX KINOMEscan scanMAX
Procedure: as §1

PRKG1 = target: T36, PRKG1 (Homo sapiens, UniProt Q13976); experiment: KINOMEscan; type: binding; conditions: 1.0 µM
T36 construct: purchased Eurofins/DiscoverX KINOMEscan scanMAX
Procedure: as §1

NEK9 = target: T37, NEK9 (Homo sapiens, UniProt Q8TD19); experiment: KINOMEscan; type: binding; conditions: 1.0 µM
T37 construct: purchased Eurofins/DiscoverX KINOMEscan scanMAX
Procedure: as §1

MUSK = target: T38, MUSK (Homo sapiens, UniProt O15146); experiment: KINOMEscan; type: binding; conditions: 1.0 µM
T38 construct: purchased Eurofins/DiscoverX KINOMEscan scanMAX
Procedure: as §1

[4] = target: T39, ABL1(E255K)-phosphorylated (Homo sapiens, UniProt P00519, E255K); experiment: KINOMEscan; type: binding; conditions: 1.0 µM
T39 construct: purchased Eurofins/DiscoverX KINOMEscan scanMAX
Procedure: as §1

ITK = target: T40, ITK (Homo sapiens, UniProt Q08881); experiment: KINOMEscan; type: binding; conditions: 1.0 µM
T40 construct: purchased Eurofins/DiscoverX KINOMEscan scanMAX
Procedure: as §1

VEGFR2 = target: T41, VEGFR2 (Homo sapiens, UniProt P35968); experiment: KINOMEscan; type: binding; conditions: 1.0 µM
T41 construct: DNA tag (qPCR barcode); purchased Eurofins/DiscoverX KINOMEscan scanMAX

T33 sequence (Q04771 21-509): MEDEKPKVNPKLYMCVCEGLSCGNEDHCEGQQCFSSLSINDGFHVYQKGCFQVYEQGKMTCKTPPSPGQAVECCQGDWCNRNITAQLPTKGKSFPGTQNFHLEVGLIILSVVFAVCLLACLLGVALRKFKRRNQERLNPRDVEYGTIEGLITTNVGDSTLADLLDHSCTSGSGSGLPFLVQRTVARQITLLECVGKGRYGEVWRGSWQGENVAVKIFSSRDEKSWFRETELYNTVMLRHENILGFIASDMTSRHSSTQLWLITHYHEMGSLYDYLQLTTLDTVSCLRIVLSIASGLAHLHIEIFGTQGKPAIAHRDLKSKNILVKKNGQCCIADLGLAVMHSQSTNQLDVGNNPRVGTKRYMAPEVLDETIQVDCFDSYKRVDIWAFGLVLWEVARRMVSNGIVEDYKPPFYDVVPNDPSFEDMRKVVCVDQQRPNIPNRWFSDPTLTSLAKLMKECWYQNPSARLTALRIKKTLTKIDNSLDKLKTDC
T14 sequence (P57058 whole entry): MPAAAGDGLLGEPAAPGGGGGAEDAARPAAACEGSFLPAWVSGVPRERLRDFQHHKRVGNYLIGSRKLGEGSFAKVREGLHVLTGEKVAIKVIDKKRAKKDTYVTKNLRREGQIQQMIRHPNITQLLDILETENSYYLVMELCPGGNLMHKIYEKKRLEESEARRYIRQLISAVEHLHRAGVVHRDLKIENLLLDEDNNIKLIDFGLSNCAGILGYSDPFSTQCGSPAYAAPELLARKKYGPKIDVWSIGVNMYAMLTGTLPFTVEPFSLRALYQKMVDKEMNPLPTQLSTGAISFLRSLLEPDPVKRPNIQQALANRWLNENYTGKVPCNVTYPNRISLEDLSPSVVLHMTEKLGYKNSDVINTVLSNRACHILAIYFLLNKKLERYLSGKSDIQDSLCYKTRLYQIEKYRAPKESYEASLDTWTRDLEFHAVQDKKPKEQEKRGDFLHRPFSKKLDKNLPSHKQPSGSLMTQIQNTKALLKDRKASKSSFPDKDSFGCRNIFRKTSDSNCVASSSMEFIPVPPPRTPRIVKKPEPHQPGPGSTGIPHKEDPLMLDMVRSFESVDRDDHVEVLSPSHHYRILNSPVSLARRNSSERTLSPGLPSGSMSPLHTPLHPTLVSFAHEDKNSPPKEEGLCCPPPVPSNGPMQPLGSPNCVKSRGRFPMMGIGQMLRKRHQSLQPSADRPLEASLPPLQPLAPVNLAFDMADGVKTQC
T12 sequence (O96017 whole entry): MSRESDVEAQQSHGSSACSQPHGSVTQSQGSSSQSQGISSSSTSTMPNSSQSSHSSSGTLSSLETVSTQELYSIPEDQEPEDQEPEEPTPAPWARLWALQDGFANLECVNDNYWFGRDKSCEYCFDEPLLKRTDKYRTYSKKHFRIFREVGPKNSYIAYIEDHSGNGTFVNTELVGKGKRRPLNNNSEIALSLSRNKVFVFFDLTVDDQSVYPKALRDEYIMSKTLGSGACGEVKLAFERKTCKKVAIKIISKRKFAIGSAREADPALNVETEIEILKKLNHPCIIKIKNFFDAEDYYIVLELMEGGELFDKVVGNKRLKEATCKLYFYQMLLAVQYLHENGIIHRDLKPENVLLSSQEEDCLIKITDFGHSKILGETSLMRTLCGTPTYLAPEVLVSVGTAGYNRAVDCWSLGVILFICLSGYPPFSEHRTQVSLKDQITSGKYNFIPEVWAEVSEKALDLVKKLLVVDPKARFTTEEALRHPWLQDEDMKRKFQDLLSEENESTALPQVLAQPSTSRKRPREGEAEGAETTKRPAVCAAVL
T2 sequence (P49840 whole entry): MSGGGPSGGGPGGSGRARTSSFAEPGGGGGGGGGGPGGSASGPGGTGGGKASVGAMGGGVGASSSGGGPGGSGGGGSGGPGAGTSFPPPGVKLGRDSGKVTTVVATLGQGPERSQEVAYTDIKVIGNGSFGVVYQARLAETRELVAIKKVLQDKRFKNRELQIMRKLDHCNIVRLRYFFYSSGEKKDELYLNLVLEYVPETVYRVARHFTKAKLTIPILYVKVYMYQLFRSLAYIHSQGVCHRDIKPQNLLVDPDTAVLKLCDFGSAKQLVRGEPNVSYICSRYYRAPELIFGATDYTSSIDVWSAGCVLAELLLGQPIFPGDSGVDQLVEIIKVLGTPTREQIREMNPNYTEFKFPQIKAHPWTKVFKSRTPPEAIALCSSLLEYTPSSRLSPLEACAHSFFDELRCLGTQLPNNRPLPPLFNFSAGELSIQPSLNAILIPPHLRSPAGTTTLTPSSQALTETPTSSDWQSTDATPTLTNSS
T26 sequence (Q86UX6 whole entry): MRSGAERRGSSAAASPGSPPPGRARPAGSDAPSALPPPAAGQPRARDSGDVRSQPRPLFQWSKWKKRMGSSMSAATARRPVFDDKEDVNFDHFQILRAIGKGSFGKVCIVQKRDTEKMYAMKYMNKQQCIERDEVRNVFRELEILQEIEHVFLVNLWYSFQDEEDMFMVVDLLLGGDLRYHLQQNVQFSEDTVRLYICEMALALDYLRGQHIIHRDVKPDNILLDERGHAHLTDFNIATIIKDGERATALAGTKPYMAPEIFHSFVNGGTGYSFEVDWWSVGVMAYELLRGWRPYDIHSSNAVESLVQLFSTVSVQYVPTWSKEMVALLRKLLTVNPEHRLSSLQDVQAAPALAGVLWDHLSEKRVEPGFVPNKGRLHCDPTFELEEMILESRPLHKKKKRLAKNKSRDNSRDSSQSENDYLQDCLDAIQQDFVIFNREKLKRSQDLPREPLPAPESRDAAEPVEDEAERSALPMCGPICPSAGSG
T30 sequence (P10721 26-976 V559D): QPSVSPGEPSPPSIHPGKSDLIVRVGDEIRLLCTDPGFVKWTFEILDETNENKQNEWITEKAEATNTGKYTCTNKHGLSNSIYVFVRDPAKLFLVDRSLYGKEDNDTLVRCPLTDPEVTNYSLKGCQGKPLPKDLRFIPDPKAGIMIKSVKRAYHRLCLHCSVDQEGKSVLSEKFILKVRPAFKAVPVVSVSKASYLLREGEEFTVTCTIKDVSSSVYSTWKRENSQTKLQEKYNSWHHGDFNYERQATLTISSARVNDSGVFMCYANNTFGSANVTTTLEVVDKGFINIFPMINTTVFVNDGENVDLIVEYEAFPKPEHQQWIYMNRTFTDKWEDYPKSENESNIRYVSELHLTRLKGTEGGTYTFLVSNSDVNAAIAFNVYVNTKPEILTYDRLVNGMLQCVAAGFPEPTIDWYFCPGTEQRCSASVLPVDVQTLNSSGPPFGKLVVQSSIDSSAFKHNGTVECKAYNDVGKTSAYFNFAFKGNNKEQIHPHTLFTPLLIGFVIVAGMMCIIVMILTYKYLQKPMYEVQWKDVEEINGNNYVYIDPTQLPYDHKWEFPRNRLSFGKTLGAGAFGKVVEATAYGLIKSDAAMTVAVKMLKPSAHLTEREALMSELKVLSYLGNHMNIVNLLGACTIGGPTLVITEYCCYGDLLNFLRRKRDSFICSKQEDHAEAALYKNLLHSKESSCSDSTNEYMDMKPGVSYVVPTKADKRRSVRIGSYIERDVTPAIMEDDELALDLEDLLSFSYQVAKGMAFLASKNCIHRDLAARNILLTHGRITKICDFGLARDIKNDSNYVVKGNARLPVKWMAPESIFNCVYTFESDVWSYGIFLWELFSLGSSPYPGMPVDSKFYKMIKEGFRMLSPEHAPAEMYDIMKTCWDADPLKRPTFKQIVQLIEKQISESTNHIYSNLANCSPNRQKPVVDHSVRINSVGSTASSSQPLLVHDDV
T10 sequence (O75676 411-674 limits assumed): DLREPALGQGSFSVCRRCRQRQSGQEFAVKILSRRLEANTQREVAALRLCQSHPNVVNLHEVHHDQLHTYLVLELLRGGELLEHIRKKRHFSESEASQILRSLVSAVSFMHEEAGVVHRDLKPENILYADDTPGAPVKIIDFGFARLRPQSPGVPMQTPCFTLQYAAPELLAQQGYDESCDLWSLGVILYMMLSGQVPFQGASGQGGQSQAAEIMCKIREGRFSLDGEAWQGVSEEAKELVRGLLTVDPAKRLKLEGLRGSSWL
T20 sequence (P11309 whole entry): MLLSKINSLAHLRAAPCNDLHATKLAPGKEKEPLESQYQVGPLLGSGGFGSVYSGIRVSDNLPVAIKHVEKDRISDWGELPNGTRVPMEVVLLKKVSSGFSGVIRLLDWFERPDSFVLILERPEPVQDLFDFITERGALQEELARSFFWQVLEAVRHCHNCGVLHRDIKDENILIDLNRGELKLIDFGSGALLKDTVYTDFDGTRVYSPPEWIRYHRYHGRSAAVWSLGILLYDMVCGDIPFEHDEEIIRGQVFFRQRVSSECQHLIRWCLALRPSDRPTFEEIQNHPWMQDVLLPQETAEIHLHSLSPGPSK
T25 sequence (P49674 whole entry): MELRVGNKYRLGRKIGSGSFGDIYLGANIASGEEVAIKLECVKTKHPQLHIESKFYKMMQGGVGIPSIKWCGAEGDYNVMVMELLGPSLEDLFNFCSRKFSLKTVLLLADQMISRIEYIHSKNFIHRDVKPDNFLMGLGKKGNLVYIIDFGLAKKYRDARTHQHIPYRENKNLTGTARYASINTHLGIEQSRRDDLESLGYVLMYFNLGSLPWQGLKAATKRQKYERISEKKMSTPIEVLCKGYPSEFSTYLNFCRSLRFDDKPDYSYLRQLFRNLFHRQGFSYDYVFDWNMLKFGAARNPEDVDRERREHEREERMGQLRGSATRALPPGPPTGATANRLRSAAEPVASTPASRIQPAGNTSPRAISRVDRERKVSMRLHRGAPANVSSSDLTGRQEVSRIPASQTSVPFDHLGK

## CN1CCN(C2CCC(n3cc(-c4ccc(Oc5ccccc5)cc4)c4c(N)ncnc43)CC2)CC1 (stereo not drawn) [A-419259]
[1]
  effect on chemotherapy-resistant AML patient xenografts: completely eliminates
RIOK2
  % Control: 100%
GSK3A
  % Control: 100%
CIT
  % Control: 79%
NEK3
  % Control: 92%
MKK7
  % Control: 46%
BMPR1A
  % Control: 100%
BMX
  % Control: 30%
MEK2
  % Control: 0.2%
BIKE
  % Control: 80%
[2]
  % Control: 99%
TAK1
  % Control: 77%
CHEK2
  % Control: 40%
NIM1
  % Control: 100%
HUNK
  % Control: 100%
PRKD2
  % Control: 63%
[3]
  % Control: 2.4%
FLT3(K663Q)
  % Control: 5.6%
PIP5K2C
  % Control: 95%
S6K1
  % Control: 27%
PIM1
  % Control: 100%
PKAC-alpha
  % Control: 100%
FGFR3
  % Control: 30%
MARK4
  % Control: 97%
PFTK1
  % Control: 63%
CSNK1E
  % Control: 1.1%
YANK3
  % Control: 100%
p38-delta
  % Control: 99%
ERK5
  % Control: 58%
ERN1
  % Control: 82%
KIT(V559D)
  % Control: 0.05%
EPHB6
  % Control: 6.8%
TIE1
  % Control: 25%
ACVR1
  % Control: 100%
MELK
  % Control: 21%
RET
  % Control: 0%
PRKG1
  % Control: 100%
NEK9
  % Control: 90%
MUSK
  % Control: 100%
[4]
  % Control: 0.5%
ITK
  % Control: 14%
VEGFR2
  % Control: 24%
